Measured values reported in PubChem BioAssay AID1963985 (Molecular Pharmacology Branch, DTP, NCI, 2024).
pIC50: −log10 of the molar value.

Tested on: 252836-082-R-J2-PDC tumor spheroids, viability
Assay: Anticancer human tumor 252836-082-R-J2-PDC patient-derived head and neck squamous cell carcinoma cell line growth inhibition [PI3K]
Details: spheroids with HUVEC and MSC; for viability, T/C: stronger effect = lower value
Text: Combinatorial screen of targeted agents with the PI3K inhibitors inavolisib, alpelisib, duvelisib, and copanlisib in multi-cell type tumor spheroids
A high-throughput screen of multi-cell type tumor spheroids was designed to identify active combinations of targeted small molecules and PI3K pathway inhibitors. Complex spheroids include a stromal component modeled by human endothelial cells (HUVEC) and fibroblasts modeled by human mesenchymal stem cells (MSCs). The concentration ranges selected for each drug and investigational agent were based upon clinically achievable concentrations if the clinical Cmax of the agent was known.
Compounds. The drugs and investigational agents: inavolisib (NSC800729), alpelisib (NSC765974), duvelisib (NSC772469), copanlisib (NSC816437), ipatasertib (NSC767898), afuresertib (NSC778305), talazoparib (NSC767125), sapanisertib (NSC764658), selumetinib (NSC741078), tovorafenib (DAY101, NSC766906), vemurafenib (NSC761431), ravoxertinib (NSC781343), sotorasib (NSC818433), MRTX1133 (NSC 836407), abemaciclib (NSC 768073), palbociclib (NSC758247), venetoclax (NSC 766270), SY5609 (NSC837396), enzalutamide (NSC755605), and darolutamide (NSC825331), were obtained from the National Cancer Institute (NCI) Developmental Therapeutics Program Chemical Repository. The FDA-approved anticancer drug set is available from the NCI Developmental Therapeutics Program. […] The stock solutions were prepared in dimethyl sulfoxide (DMSO, Sigma-Aldrich, St. Louis, MO, cat. D2650) at 800-fold the tested concentration and stored at -70 degrees C prior to their use. All drugs and investigational agents were tested over a range starting from a high concentration at or near the clinical Cmax and decreasing in half-log increments. If the clinical Cmax for an agent had not been determined, the highest concentration tested was 10 microM.
Cell Culture. All cells were maintained in an incubator at 37 degrees C and 5% CO2 with 95% humidity. The PDC lines were cultured according to standard operating procedures established by the NCI PDMR (https://pdmr.cancer.gov/sops/default.htm). All PDCs were thawed and cultured in Matrigel-coated flasks prepared with a working solution of 1X Ham's F-12 nutrient mix, without supplementation (Invitrogen, Waltham, MA, cat. 11765054), 100 U/mL penicillin-streptomycin (Invitrogen, cat. 15140122), and 2.5% Matrigel (Corning Inc., Corning, NY, cat. 354248) for the first three passages. The 354836-022-R-J1-PDC, 475296-252-R-J1-PDC, and 997726-040-R-J2-PDC lines were cultured in 6A media, which includes advanced DMEM/F-12 (Thermo Fisher Scientific, cat. 12634028), 10 mM HEPES (Thermo Fisher Scientific, cat. 15630080), 1X GlutaMAX supplement (Thermo Fisher Scientific, cat. 35050061), 0.1 mg/mL primocin (InvivoGen, San Diego, CA, cat. ant-pm-2), 10% defined fetal bovine serum, heat inactivated (HyClone Laboratories Inc., Logan, UT, cat. SH30070.03HI), 50% L-WRN conditioned media (ATCC, cat. CRL-3276), 1.25 mM N-Acetyl-L-cysteine (Sigma-Aldrich, cat. A9165), 10 mM nicotinamide (Sigma-Aldrich, cat. N0636), 1X B-27 supplement (Thermo Fisher Scientific, cat. 17504044), 1X N-2 supplement (Thermo Fisher Scientific, cat. 17502048), and 10 microM Y-27632 dihydrochloride (Tocris Bioscience, Bristol, United Kingdom, cat. 1254). The 624824-186-R-J2-PDC line was cultured in 6C/Colon 1B media, which includes all 6A media components plus 50 ng/mL human EGF recombinant protein (Thermo Fisher Scientific, cat. PHG0311). […]

[1] = curve of first compound, second compound 0.0316 µM
[2] = curve of first compound, second compound 0.1 µM
[3] = curve of first compound, second compound 0.316 µM
[4] = curve of first compound, second compound 1 µM
[5] = second compound 0.0316 µM, first compound 0.0316 µM
[6] = second compound 0.0316 µM, first compound 0.1 µM
[7] = second compound 0.0316 µM, first compound 0.316 µM
[8] = second compound 0.0316 µM, first compound 1 µM
[9] = second compound 0.0316 µM, first compound 3.16 µM
[10] = second compound 0.0316 µM, first compound 10 µM
[11] = second compound 0.1 µM, first compound 0.0316 µM
[12] = second compound 0.1 µM, first compound 0.1 µM
[13] = second compound 0.1 µM, first compound 0.316 µM
[14] = second compound 0.1 µM, first compound 1 µM
[15] = second compound 0.1 µM, first compound 3.16 µM
[16] = second compound 0.1 µM, first compound 10 µM
[17] = second compound 0.316 µM, first compound 0.0316 µM
[18] = second compound 0.316 µM, first compound 0.1 µM
[19] = second compound 0.316 µM, first compound 0.316 µM
[20] = second compound 0.316 µM, first compound 1 µM
[21] = second compound 0.316 µM, first compound 3.16 µM
[22] = second compound 0.316 µM, first compound 10 µM
[23] = second compound 1 µM, first compound 0.0316 µM
[24] = second compound 1 µM, first compound 0.1 µM
[25] = second compound 1 µM, first compound 0.316 µM
[26] = second compound 1 µM, first compound 1 µM
[27] = second compound 1 µM, first compound 3.16 µM
[28] = second compound 1 µM, first compound 10 µM
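Also: spheroids exposed to agents for seven days before readout.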
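For viability, T/C in this document: percent of vehicle DMSO control viability so 100% = untreated growth.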

C=CC(=O)N1CCN(c2nc(=O)n(-c3c(C)ccnc3C(C)C)c3nc(-c4c(O)cccc4F)c(F)cc23)C(C)C1 (stereo not drawn)
viability, T/C (compound 0.0316 µM): 98% [middle of 4 runs] | viability, T/C (compound 0.1 µM): 95.6% [middle of 4 runs] | viability, T/C (compound 10 µM): 99.2% [middle of 4 runs] | pIC50 (curve of compound): < 5.00

CC(C)NCC(C(=O)N1CCN(c2ncnc3c2C(C)CC3O)CC1)c1ccc(Cl)cc1 (stereo not drawn) + CC(Nc1ncnc2nc[nH]c12)c1cc2cccc(Cl)c2c(=O)n1-c1ccccc1
pIC50 [1]: 5.94 | pIC50 [2]: 5.96 | pIC50 [3]: 6.00 | pIC50 [4]: 6.01 | pIC50 (curve of first compound, second compound 3.16 µM): 6.04 | pIC50 (curve of first compound, second compound 10 µM): 6.13 | viability, T/C [5]: 99.4% | viability, T/C [6]: 89.4% | viability, T/C [7]: 76.7% | viability, T/C [8]: 54.5% | viability, T/C [9]: 28.6% | viability, T/C [10]: 22.1% | viability, T/C [11]: 97.9% | viability, T/C [12]: 81.1% | viability, T/C [13]: 77.4% | viability, T/C [14]: 49% | viability, T/C [15]: 33.2% | viability, T/C [16]: 21.7% | viability, T/C [17]: 83.3% | viability, T/C [18]: 83.1% | viability, T/C [19]: 85% | viability, T/C [20]: 48.3% | viability, T/C [21]: 38.1% | viability, T/C [22]: 20.7% | viability, T/C [23]: 95.4% | viability, T/C [24]: 98.1% | viability, T/C [25]: 65.3% | viability, T/C [26]: 51.5% | viability, T/C [27]: 33.6% | viability, T/C [28]: 20.5% | viability, T/C (second compound 3.16 µM, first compound 0.0316 µM): 75.7% | viability, T/C (second compound 3.16 µM, first compound 0.1 µM): 74.9% | viability, T/C (second compound 3.16 µM, first compound 0.316 µM): 75% | viability, T/C (second compound 3.16 µM, first compound 1 µM): 46.5% | viability, T/C (second compound 3.16 µM, first compound 3.16 µM): 35.4% | viability, T/C (second compound 3.16 µM, first compound 10 µM): 24.2% | viability, T/C (second compound 10 µM, first compound 0.0316 µM): 71.3% | viability, T/C (second compound 10 µM, first compound 0.1 µM): 69.2% | viability, T/C (second compound 10 µM, first compound 0.316 µM): 59.6% | viability, T/C (second compound 10 µM, first compound 1 µM): 46.3% | viability, T/C (second compound 10 µM, first compound 3.16 µM): 30.4% | viability, T/C (second compound 10 µM, first compound 10 µM): 16.6%

CC(C)NCC(C(=O)N1CCN(c2ncnc3c2C(C)CC3O)CC1)c1ccc(Cl)cc1 (stereo not drawn) + CC(Nc1ccc2c(c1)OCCn1cc(N3C(=O)OCC3C(F)F)nc1-2)C(N)=O
pIC50 (curve of first compound, second compound 0.00316 µM): 6.15 | pIC50 (curve of first compound, second compound 0.01 µM): 6.13 | pIC50 [1]: 6.20 | pIC50 [2]: 6.63 | pIC50 [3]: 6.76 | pIC50 [4]: > 7.50 | viability, T/C (second compound 0.00316 µM, first compound 0.0316 µM): 100% | viability, T/C (second compound 0.00316 µM, first compound 0.1 µM): 83% | viability, T/C (second compound 0.00316 µM, first compound 0.316 µM): 66.9% | viability, T/C (second compound 0.00316 µM, first compound 1 µM): 41.4% | viability, T/C (second compound 0.00316 µM, first compound 3.16 µM): 29.8% | viability, T/C (second compound 0.00316 µM, first compound 10 µM): 18.3% | viability, T/C (second compound 0.01 µM, first compound 0.0316 µM): 83.1% | viability, T/C (second compound 0.01 µM, first compound 0.1 µM): 88.3% | viability, T/C (second compound 0.01 µM, first compound 0.316 µM): 69.6% | viability, T/C (second compound 0.01 µM, first compound 1 µM): 42.5% | viability, T/C (second compound 0.01 µM, first compound 3.16 µM): 28.5% | viability, T/C (second compound 0.01 µM, first compound 10 µM): 20.1% | viability, T/C [5]: 87.4% | viability, T/C [6]: 82.3% | viability, T/C [7]: 67% | viability, T/C [8]: 36.9% | viability, T/C [9]: 29.3% | viability, T/C [10]: 17.9% | viability, T/C [11]: 74.8% | viability, T/C [12]: 56.4% | viability, T/C [13]: 47.9% | viability, T/C [14]: 35.8% | viability, T/C [15]: 23.8% | viability, T/C [16]: 15.7% | viability, T/C [17]: 54.9% | viability, T/C [18]: 49.6% | viability, T/C [19]: 49.4% | viability, T/C [20]: 37.3% | viability, T/C [21]: 25.4% | viability, T/C [22]: 16.6% | viability, T/C [23]: 43% | viability, T/C [24]: 42.2% | viability, T/C [25]: 37.3% | viability, T/C [26]: 29.2% | viability, T/C [27]: 22.8% | viability, T/C [28]: 14.7%
